Results on five molecules are retold here after paper PMC3825534 (Journal of Cancer Research and Clinical Oncology, 2013).

SMILES strings stand for the structures. Some results are limits rather than exact numbers.

The test system of series [1] is reactive oxygen species (ROS) generation. Details: method as in Locatelli et al. [2004]. As to conditions: ref Locatelli et al. [2004]; cited from earlier work.
The target of another series is panel of 97 kinases. Kind of series: KINOMEscan binding assay, whole panel. As to conditions: for kinase binding: 10 µM, panel of 97 kinases; for Interactions Mapped / S-Score(35): 10 μM; for Interactions Mapped: 97 Assays Tested; for S-Score(35): number of non-mutant kinases with POC <35/number of non-mutant kinases tested. The method, then: (§1) The binding affinities of ABZ and MBZ were tested at 10 μM in a high-throughput binding assay (KINOMEscan, Discoverx, CA, USA) against a panel of 97 kinases tagged with DNA (Davis et al. [2011]). Compounds that bind the kinase active site and directly or indirectly prevent kinase binding to an immobilized ligand will reduce the amount of kinase captured on solid support. […] Hits are identified by measuring the amount of kinase captured in test versus control samples by using a quantitative PCR method that detects the associated DNA label (http://www.discoverx.com/tools-resources/publications-references). Results are presented as percent of control (POC). Selectivity score (S-score) is a quantitative measure of compound selectivity. S(35) is calculated as number of non-mutant kinases with POC <35/number of non-mutant kinases tested. Binding constants were determined with the same method using 11-point threefold serial dilutions of the compound. Curves were fitted using a nonlinear least square fit with the Levenberg–Marquardt algorithm (Davis et al. [2011]).

For series [2] the following is noted: cited from earlier work.
The test system of series [3] is colon cancer cell lines RKO and HCT116. Kind of series: FMCA primary screening at 10 μM. Format: cell-based, human. The conditions noted are these: 10 μM drug concentration; both cell lines; hit criterion SI <40 %. The method, then:
For primary screening, the colon cancer cell lines HCT 116 and RKO, obtained from American Type Culture Collection (ATCC; Rockville, MD, USA), were cultured in McCoy’s 5a medium supplemented with 10 % heat-inactivated fetal bovine serum, 2 mM L-glutamine, 100 μg/ml streptomycin and 100 U/ml penicillin (all from Sigma-Aldrich St. Louis, MO, USA).
The Pharmakon 1600 library (Microsource Inc, MO, USA) consists of 1,600 annotated compounds previously used in the clinical setting. The library was delivered in […] each containing 80 compounds at a concentration of 10 mM dissolved in DMSO. For the primary screening, aliquots of the DMSO solutions were transferred to 384-well Labcyte source plates (Labcyte Inc, CA, USA) using a Biomek 2000 and stored at room temperature in containers under nitrogen atmosphere. These source plates were subsequently used to deliver 10 μM (final concentration) of each drug to 384-well screening plates using a acoustic dispensing Echo 550 instrument equipped with Labcytes Access robotics (Labcyte).
The fluorometric microculture cytotoxicity assay (FMCA), described in detail previously (Lindhagen et al. [2008]), was used for measurement of the cytotoxic effect of library compounds and the established standard drugs. The FMCA is based on measurement of fluorescence generated from hydrolysis of fluorescein diacetate (FDA) to fluorescein by cells with intact plasma membranes. Cells were seeded in 384-well plates using the pipetting robot Precision 2000 (Bio-Tek Instruments Inc, Winooski, VT) and cultured over night before drugs were added by the Echo 550 system. […] Results are expressed as survival index (SI), defined as fluorescence of experimental wells in per cent of unexposed control wells with blank values subtracted.
Screening data were exported to Vortex (Dotmatics Inc, UK) software for analysis. […] Structural similarity to other compounds in the library was calculated based on a structural fingerprint consisting of chemical fragments located within the compound as computed by Vortex. […]

Series [4] relates to refractory metastatic colon cancer. Details: method as in case report accepted for publication in Acta Oncologica. The conditions noted are these: 100 mg twice daily, ref case report accepted for publication in Acta Oncologica, cited from earlier work.
The target in the next series is T1, KIT (Homo sapiens, UniProt P10721).
T1 construct: purchased Discoverx (KINOMEscan service)
Kind of series: KINOMEscan binding assay. The method, then: as §1

In series [5] the target is T2, ABL1(E255K) phosphorylated (Homo sapiens, UniProt P00519, E255K).
T2 construct: purchased Discoverx (KINOMEscan service)
Nature of the series: KINOMEscan binding assay. The method, then: as §1

For the next series, the target named is T3, ABL1 phosphorylated (Homo sapiens, UniProt P00519).
T3 construct: purchased Discoverx (KINOMEscan service)
Kind of series: KINOMEscan binding assay. The method, then: as §1

The next series addresses T4, ABL1 nonphosphorylated (Homo sapiens, UniProt P00519).
T4 construct: purchased Discoverx (KINOMEscan service)
Nature of the series: KINOMEscan binding assay. The method, then: as §1

Another series deals with T5, PDGFRA (Homo sapiens, UniProt P16234).
T5 construct: purchased Discoverx (KINOMEscan service)
Nature of the series: KINOMEscan binding assay. As to the method:
as §1

In series [6] the target is T6, ABL1(T315I) phosphorylated (Homo sapiens, UniProt P00519, T315I).
T6 construct: purchased Discoverx (KINOMEscan service)
Nature of the series: KINOMEscan binding assay. The method, then:
as §1

The target in a further series is T7, BRAF(V600E) (Homo sapiens, UniProt P15056, V600E).
T7 construct: purchased Discoverx (KINOMEscan service)
Kind of series: KINOMEscan binding assay. The method, then:
as §1

Another series addresses T8, BRAF (Homo sapiens, UniProt P15056).
T8 construct: purchased Discoverx (KINOMEscan service)
Kind of series: KINOMEscan binding assay. As to the method: as §1

The target in another series is T9, PDGFRB (Homo sapiens, UniProt P09619).
T9 construct: purchased Discoverx (KINOMEscan service)
Kind of series: KINOMEscan binding assay. As to the method:
as §1

A further series concerns the target T10, JNK3 (Homo sapiens, UniProt P53779).
T10 construct: purchased Discoverx (KINOMEscan service)
Kind of series: KINOMEscan binding assay. As to the method: as §1

In series [7] the test system is NCI 60 cell line panel. Details: method as in NCI Cellminer database. The conditions noted are these: NCI 60 panel; ref NCI Cellminer database; read-out: average GI 50 over the panel; cited from earlier work.
In series [8] the test system is NCI 60 cell line panel. Nature of the series: NCI 60 growth inhibitory screen data mining (Cellminer). The format is cell-based. As to the method:
Analysis of data from the National Cancer Institute growth inhibitory screen in 60 cell lines (NCI 60 GI 50 data) was performed with the help by the NCI Cellminer database (http://discover.nci.nih.gov/cellminer/). Z scores are determined for each experiment/cell line pair by the subtraction from its intensity by the experiment mean (across the 60 cell lines) and division by the standard deviation of the experiment (across the 60 cell lines). The z score average was then calculated as the mean across all experiments that passed quality control criteria. The z score will have a mean of zero and a standard deviation of one.

A further series relates to glioma. Details: method as in Bai et al. [2011]. The conditions noted are these: two orthotopic mouse models of glioma; ref Bai et al. [2011]; cited from earlier work.
For series [9], the system named is colon cancer cell lines (HCT 116, RKO, HT29, HT-8 and SW626). Nature of the series: FMCA concentration-response, colon cancer cell lines. The format is cell-based. The conditions noted are these: Homo sapiens; all 5 colon cancer cell lines; 72 h FMCA. The method, then:
The colon cancer cell lines HT29, HT-8 and SW626 and the normal phenotype non-malignant epithelial MCF 10A, renal RPTEC/TERT1 and hepatocyte NeHepLxHT cell lines were used for validation experiments. These cell lines were all obtained from ATCC and cultured according to the protocols provided by the supplier. All the cell lines were cultured at 37 °C in a humidified atmosphere containing 5 % CO2.
For dose–response studies, Labcyte source plates and the Echo dispenser were used in a similar manner to deliver different concentrations of each drug to destination plates using on board software protocols (Labcyte).
The fluorometric microculture cytotoxicity assay (FMCA), described in detail previously (Lindhagen et al. [2008]), was used for measurement of the cytotoxic effect of library compounds and the established standard drugs. The FMCA is based on measurement of fluorescence generated from hydrolysis of fluorescein diacetate (FDA) to fluorescein by cells with intact plasma membranes. […] Results are expressed as survival index (SI), defined as fluorescence of experimental wells in per cent of unexposed control wells with blank values subtracted.
Concentration–response data of screening hits and standard agents were analyzed using the software GraphPad Prism4 (GraphPad Software Inc., San Diego, CA, USA). […]

The subject of series [10] is protein kinases including Bcr–Abl. Details: method as in Park et al. [2012]. The conditions noted are these: ref Park et al. [2012]; cited from earlier work.
The mark [11] stands for this setting: percent of control at 10 μM, read-out: POC (10 μM).

T7 sequence (P15056 whole entry V600E): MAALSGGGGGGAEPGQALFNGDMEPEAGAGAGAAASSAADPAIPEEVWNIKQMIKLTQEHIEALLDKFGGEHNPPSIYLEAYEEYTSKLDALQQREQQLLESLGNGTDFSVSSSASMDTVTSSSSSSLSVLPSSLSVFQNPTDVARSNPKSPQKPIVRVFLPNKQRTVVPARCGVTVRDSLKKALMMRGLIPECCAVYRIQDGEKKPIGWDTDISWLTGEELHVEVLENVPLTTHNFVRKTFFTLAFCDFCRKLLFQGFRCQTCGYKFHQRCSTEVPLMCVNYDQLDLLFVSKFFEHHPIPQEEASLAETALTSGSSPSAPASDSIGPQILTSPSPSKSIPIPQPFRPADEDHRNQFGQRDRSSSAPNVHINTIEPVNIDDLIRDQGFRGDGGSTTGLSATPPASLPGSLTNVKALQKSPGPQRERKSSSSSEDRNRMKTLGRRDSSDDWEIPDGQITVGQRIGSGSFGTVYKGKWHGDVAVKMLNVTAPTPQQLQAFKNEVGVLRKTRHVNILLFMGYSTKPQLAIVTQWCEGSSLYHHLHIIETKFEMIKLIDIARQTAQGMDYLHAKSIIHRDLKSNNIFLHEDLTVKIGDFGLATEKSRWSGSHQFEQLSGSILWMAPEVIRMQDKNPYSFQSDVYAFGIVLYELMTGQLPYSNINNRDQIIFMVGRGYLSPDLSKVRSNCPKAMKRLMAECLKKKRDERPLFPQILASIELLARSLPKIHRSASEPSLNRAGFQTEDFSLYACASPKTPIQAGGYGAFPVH
T8 sequence (P15056 whole entry): as the sequence (P15056 whole entry V600E) above, with E600V counted along it
T5 sequence (P16234 24-1089): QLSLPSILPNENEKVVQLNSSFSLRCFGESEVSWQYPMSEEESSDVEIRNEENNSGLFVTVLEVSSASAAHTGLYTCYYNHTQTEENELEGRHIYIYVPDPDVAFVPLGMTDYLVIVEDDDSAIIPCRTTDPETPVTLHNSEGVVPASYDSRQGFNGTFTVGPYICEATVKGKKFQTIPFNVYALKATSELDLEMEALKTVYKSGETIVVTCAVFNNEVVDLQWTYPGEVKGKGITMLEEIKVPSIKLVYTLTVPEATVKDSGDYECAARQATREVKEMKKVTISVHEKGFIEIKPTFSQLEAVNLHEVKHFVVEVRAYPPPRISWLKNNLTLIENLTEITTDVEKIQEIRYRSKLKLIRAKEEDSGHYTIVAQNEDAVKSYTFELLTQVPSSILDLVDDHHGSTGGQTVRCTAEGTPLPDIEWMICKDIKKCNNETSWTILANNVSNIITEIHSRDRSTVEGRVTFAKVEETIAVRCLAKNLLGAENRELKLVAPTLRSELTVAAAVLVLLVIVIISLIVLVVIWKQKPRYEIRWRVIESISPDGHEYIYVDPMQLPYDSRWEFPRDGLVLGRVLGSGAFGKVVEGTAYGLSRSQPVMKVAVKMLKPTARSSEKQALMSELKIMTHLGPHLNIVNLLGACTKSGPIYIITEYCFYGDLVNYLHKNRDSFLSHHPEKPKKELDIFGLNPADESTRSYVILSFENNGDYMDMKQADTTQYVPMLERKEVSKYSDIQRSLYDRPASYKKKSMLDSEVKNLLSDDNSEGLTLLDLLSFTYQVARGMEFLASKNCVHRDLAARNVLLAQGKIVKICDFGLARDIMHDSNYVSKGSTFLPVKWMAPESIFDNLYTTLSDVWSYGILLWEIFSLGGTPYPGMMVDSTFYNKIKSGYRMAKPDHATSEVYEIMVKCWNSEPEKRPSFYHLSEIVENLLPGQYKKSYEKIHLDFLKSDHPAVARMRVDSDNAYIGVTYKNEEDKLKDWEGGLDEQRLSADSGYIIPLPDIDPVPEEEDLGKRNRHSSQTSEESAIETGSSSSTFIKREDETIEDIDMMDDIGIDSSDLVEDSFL
T1 sequence (P10721 26-976): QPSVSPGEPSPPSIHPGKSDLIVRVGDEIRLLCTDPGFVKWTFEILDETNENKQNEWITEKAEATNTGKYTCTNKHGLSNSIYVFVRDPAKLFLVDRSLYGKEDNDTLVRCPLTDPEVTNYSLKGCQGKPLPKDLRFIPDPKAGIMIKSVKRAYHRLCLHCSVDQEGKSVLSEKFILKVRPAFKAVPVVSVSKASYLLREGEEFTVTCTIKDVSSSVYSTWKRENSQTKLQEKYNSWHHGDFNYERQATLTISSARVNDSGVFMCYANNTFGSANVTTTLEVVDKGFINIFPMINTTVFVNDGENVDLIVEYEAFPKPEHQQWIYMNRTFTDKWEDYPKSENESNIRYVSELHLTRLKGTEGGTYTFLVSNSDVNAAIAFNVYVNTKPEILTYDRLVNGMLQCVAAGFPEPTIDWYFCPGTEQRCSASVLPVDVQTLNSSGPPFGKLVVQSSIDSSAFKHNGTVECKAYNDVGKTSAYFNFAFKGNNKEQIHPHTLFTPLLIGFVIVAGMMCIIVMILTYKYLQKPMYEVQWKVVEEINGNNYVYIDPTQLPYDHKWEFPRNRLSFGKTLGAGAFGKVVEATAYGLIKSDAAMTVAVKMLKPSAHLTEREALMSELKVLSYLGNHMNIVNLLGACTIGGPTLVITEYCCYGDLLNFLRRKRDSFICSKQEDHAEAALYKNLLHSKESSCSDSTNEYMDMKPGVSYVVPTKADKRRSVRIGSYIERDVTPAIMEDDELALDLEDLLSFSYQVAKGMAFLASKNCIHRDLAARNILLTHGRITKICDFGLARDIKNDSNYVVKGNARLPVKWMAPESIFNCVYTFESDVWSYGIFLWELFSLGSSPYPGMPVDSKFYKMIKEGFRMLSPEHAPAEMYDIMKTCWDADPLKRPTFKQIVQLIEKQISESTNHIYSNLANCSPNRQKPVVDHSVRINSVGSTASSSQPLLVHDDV
T10 sequence (P53779 whole entry): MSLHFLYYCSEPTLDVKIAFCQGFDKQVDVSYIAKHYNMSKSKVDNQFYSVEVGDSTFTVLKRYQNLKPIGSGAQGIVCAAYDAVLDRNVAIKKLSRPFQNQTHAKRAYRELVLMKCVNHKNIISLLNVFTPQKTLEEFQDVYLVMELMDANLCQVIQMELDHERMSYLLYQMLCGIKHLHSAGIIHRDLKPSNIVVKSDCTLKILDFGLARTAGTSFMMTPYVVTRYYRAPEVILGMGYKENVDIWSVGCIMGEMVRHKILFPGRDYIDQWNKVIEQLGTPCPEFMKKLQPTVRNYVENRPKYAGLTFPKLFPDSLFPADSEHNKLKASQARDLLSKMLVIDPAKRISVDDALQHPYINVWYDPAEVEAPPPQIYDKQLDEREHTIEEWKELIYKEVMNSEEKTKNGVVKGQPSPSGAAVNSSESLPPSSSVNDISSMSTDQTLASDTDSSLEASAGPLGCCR
T9 sequence (P09619 33-1106): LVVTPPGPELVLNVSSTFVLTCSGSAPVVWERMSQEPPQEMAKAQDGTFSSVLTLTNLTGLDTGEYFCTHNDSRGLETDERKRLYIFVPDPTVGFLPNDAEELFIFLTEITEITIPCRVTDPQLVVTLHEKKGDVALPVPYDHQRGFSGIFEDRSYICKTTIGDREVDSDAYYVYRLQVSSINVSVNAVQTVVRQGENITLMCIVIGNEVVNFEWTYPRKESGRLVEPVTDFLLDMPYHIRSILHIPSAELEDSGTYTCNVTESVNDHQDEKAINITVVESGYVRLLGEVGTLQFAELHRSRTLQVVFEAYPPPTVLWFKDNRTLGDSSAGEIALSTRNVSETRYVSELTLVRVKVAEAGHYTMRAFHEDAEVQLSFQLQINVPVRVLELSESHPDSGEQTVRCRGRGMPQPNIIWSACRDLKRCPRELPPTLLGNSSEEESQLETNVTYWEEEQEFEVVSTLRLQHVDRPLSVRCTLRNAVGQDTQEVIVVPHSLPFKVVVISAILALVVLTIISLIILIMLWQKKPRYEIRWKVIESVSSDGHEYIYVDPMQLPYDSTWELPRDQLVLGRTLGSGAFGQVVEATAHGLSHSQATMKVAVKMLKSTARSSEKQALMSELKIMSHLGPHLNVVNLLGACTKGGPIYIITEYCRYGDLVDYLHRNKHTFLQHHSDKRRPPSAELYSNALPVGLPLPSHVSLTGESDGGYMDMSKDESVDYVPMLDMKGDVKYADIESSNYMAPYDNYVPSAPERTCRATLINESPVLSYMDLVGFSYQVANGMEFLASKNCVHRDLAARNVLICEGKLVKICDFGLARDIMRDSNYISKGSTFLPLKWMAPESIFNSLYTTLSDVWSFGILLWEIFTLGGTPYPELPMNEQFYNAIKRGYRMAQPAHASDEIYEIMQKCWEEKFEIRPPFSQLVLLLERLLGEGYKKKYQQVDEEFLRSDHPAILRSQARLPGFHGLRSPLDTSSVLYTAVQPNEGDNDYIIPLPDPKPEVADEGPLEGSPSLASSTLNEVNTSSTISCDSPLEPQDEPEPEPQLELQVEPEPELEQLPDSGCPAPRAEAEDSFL

Turning to `CCCSc1ccc2nc(NC(=O)OC)[nH]c2c1` [albendazole], the ROS generation entry in series [1] is recorded as “strong reactive oxygen species (ROS) generation”. Further, at panel of 97 kinases, the kinase binding result is recorded as “no kinase binding was observed”, the “Interactions Mapped” value amounted to 1 and the “S-Score(35)” value is 0. For the same molecule, the dose-limiting toxicity entry in series [2] (dose-escalating phase-I trial, ref Pourgholami et al. [2010]) is recorded as “neutropenia”. Moreover, in series [2] (patients with advanced cancers, ref Morris et al. [2001]), the “toxicity in clinical study” value is on record as “neutropenia”. Besides, the “survival index (SI)” value in series [3] is “closely followed”.

For `COC(=O)Nc1nc2ccc(Sc3ccccc3)cc2[nH]1` [fenbendazole], in series [3], the “survival index (SI)” value is recorded as “closely followed”.

For `COC(=O)Nc1nc2ccc(C(=O)c3ccccc3)cc2[nH]1` [mebendazole], in [4] (after six weeks of therapy), the “computerized tomography evaluation, liver” value was “good partial remission”. Moreover, the “computerized tomography evaluation, metastases in the lungs and lymph nodes” value in [4] (after six weeks of therapy) is “near complete remission”. The adverse effects entry in series [4] is on record as “no subjective adverse effects at all”. Besides, the Kd on KIT (average of two determinations) was 460 nM; in series [5] (average of two determinations), 78 nM; at ABL1 phosphorylated (average of two determinations), 130 nM; at ABL1 nonphosphorylated (average of two determinations) it was 550 nM; on PDGFRA (average of two determinations), 340 nM; in series [6] (average of two determinations) it was 170 nM. Moreover, the dissociation constant (Kd) at BRAF(V600E) (average of two determinations) was found to be 250 nM; on BRAF (average of two determinations), 190 nM; on PDGFRB (average of two determinations), 560 nM; at JNK3 (average of two determinations) it was 420 nM. In addition, the remaining binding at 10 µM is 2.9% at KIT (setting [11]); 0.3% in series [5] (setting [11]); 0.95% on ABL1 phosphorylated (setting [11]); 2.4% at ABL1 nonphosphorylated (setting [11]); 15% on PDGFRA (setting [11]); 4.8% in [6] (setting [11]). Also, the remaining binding at 10 µM on BRAF(V600E) (setting [11]) was 5.1%; at BRAF (setting [11]), 13%; on PDGFRB (setting [11]), 2.3%; on JNK3 (setting [11]) it was 5.2%. The GI50 with NCI 60 cell line panel [7] is 460 nM. Besides, at panel of 97 kinases, the kinase binding result is recorded as “potent inhibitor of several kinases with high affinity”. For the same molecule, the “Interactions Mapped” value in the series with panel of 97 kinases is given as 20. For the same molecule, the “S-Score(35)” value in the series with panel of 97 kinases came out at 0.19. The “frequency of sensitive cell lines (positive z scores)” value with NCI 60 cell line panel [8] (colon cancer cell lines of NCI 60) was 80%; in the series on NCI 60 cell line panel [8] (lung cancer subpanel of NCI 60), 25%; in the series with NCI 60 cell line panel [8] (renal cancer subpanel of NCI 60), 28%. Moreover, the survival entry in the series on glioma is recorded as “significantly increase survival”. Further, the half-inhibitory concentration (IC50) in [9] is below 5000 nM.

Turning to `CCCOc1ccc2nc(NC(=O)OC)[nH]c2c1` [Oxibendazole, oxibendazole], the “survival index (SI)” value in [3] is “lowest SIs”.

On to `COC(=O)Nc1nc2ccc(C(=O)c3cccs3)cc2[nH]1` [nocodazole], for which the protein kinase inhibition entry in [10] is reported as “inhibit several protein kinases including Bcr–Abl”.

By Kd is commonly meant a measure of binding affinity in units of concentration. A lower Kd goes with a tighter complex. For orientation: IC50 means the point on the concentration scale where inhibition reaches its midpoint.
